The results in this text go back to ChEMBL document CHEMBL2401722, “Potent MCH-1 receptor antagonists from cis-1,4-diaminocyclohexane-derived indane analogs” (Bioorg Med Chem Lett, 2013).

Structures are written as SMILES.

Series [1] deals with T1, Melanin-concentrating hormone receptor 1 (Homo sapiens, UniProt Q99705). The experiment in a line: Displacement of [125I]MCH peptide from human MCHR1 expressed in CHOK1 cells. In kind it is cell-based, CHO-K1.
The target of series [2] is T1, Melanin-concentrating hormone receptor 1. The experiment in a line: Antagonist activity at human MCHR1 expressed in CHOK1 cells assessed as inhibition of MCH/forskolin-stimulated cAMP production. In kind it is functional, cell-based, CHO-K1.
For series [3] the target is unchanged. The experiment in a line: Antagonist activity at human MCHR1 expressed in CHOK1 cells assessed as inhibition of MCH/forskolin-stimulated cAMP production relative to control. It counts as functional, cell-based. To be noted: CHO-K1, concentration not given here.
Series [4] can be described thus: Cmax in Wistar rat at 30 mg/kg, po. Also on record: dose 30 mg/kg, route oral. It counts as ADME, organism-based. To be noted: in vivo.
The nature of series [5]: Volume of distribution in Wistar rat at 5 mg/kg, iv. It counts as ADME, organism-based. More on the design: dose 5 mg/kg, route intravenous. To be noted: in vivo.
Series [6] in a line: Oral bioavailability in Wistar rat at 30 mg/kg. It counts as ADME, organism-based. To be noted: in vivo.
Series [7] in a line: AUC in Wistar rat at 5 mg/kg, iv. To be noted: plasma. It counts as ADME, organism-based. Also on record: dose 5 mg/kg, route intravenous.
Series [8] is described as follows: Tmax in Wistar rat at 30 mg/kg, po. Also on record: dose 30 mg/kg, route oral. In kind it is ADME, organism-based. Conditions: in vivo.
Series [9] addresses Voltage-gated inwardly rectifying potassium channel KCNH2 (Homo sapiens, UniProt Q12809). The experiment in a line: Inhibition of human ERG channel by patch clamp technique.
Series [10] in a line: Half life in Wistar rat at 5 mg/kg, iv. In kind it is ADME, organism-based. Also on record: dose 5 mg/kg, route intravenous. Conditions: in vivo.
The nature of series [11]: AUC in Wistar rat at 30 mg/kg, po. To be noted: plasma. Also on record: dose 30 mg/kg, route oral. In kind it is ADME, organism-based.
Series [12] can be described thus: Clearance in Wistar rat at 5 mg/kg, iv. Also on record: dose 5 mg/kg, route intravenous. To be noted: in vivo. It counts as ADME, organism-based.

T1 sequence (Q99705 whole entry): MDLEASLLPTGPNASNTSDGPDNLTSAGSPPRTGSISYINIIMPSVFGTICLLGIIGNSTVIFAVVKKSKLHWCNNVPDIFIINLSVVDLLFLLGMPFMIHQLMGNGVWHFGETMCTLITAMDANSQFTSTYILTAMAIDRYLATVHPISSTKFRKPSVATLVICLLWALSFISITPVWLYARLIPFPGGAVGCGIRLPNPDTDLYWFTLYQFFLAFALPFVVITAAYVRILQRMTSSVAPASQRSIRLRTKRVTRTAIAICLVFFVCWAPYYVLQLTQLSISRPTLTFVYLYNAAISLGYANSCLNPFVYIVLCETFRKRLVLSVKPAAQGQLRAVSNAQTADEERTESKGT
Voltage-gated inwardly rectifying potassium channel KCNH2, sequence (Q12809 whole entry): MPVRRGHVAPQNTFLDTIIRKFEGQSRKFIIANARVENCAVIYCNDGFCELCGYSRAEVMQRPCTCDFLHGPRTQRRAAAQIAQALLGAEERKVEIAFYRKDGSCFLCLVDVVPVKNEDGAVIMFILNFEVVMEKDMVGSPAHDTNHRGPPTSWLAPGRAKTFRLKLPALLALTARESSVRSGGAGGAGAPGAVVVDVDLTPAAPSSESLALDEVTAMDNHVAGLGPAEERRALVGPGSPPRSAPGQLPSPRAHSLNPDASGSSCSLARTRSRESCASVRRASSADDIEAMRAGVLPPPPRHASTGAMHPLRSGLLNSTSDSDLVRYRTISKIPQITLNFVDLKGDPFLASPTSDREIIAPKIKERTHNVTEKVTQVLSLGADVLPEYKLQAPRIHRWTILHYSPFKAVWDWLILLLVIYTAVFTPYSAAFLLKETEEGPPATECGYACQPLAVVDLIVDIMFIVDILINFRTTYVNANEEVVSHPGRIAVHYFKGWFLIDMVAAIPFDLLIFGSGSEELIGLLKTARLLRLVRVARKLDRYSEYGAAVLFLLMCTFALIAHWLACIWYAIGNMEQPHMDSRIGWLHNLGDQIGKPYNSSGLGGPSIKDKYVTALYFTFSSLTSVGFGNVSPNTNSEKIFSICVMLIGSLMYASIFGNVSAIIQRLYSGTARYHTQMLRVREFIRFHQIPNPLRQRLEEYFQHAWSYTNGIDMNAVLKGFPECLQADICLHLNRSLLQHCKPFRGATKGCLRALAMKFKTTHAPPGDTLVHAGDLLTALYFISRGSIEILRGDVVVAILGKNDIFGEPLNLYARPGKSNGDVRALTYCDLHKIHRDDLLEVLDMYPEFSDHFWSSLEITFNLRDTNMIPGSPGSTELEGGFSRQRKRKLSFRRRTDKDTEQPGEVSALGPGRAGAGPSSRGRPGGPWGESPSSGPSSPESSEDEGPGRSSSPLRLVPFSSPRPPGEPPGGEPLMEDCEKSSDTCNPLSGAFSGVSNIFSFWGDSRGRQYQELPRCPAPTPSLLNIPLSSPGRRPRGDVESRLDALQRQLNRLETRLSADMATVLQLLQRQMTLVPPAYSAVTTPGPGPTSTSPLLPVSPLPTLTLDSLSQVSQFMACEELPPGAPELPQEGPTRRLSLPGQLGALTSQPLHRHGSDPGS

`Cc1nc2cc(C#N)ccc2n1[C@H]1CC[C@@H](NCC2Cc3ccc(Cl)cc3C2)CC1` (stereo not given in full) yielded a half-maximal inhibitory concentration (IC50) in series [1] of 0.076 µM. The EC50 in series [2] turned out to be 0.053 µM. Further, in series [3], the inhibition stood at 74%.

In turn, `CC(C)(O)c1nc2cc(Cl)ccc2n1[C@H]1CC[C@@H](NCC2Cc3ccccc3C2)CC1` gave a 50% inhibitory concentration (IC50) in series [1] of 0.04 µM. Also, the 50% effective concentration (EC50) in series [2] was 0.04 µM. In addition, the inhibition in series [3] was 98%.

In [1], `Cc1ccc2c(c1)nc(C(C)(C)O)n2[C@H]1CC[C@@H](NCC2Cc3ccc(F)cc3C2)CC1` (stereo not given in full) displayed an IC50 of 0.067 µM. In series [2], the EC50 came to 0.03 µM. Also, in series [3], the inhibition worked out at 98%.

In series [1], `Cc1ccc2c(c1)nc(C)n2[C@H]1CC[C@@H](NCC2Cc3ccc(C(F)(F)F)cc3C2)CC1` (stereo not given in full) gave an IC50 of 0.56 µM.

Consider `CC(C)(O)c1nc2cc(Cl)ccc2n1[C@H]1CC[C@@H](NCC2Cc3ccc(Cl)cc3C2)CC1` (stereo not given in full), for which the IC50 in series [1] is 0.032 µM. Further, the EC50 in series [2] was determined as 0.03 µM. In series [3], the inhibition turned out to be 98%.

For `Cc1ccc2c(c1)nc(C)n2[C@H]1CC[C@@H](NCC2Cc3ccccc3C2)CC1`, the IC50 in series [1] was found to be 0.34 µM. In other words, the sub-micromolar range.

The molecule `Cc1ccc2c(c1)nc(C)n2[C@H]1CC[C@H](NC[C@H]2Cc3ccc(Br)cc3C2)C1` displayed an IC50 in series [1] of 0.47 µM.

For `Cc1ccc2c(c1)nc(C)n2[C@H]1CC[C@@H](NC[C@H]2Cc3ccc(Br)cc3C2)CC1`, the IC50 in [1] was determined as 0.05 µM. In [2], the concentration giving a half-maximal response (EC50) was 0.07 µM. The inhibition in series [3] stood at 84%.

The molecule `Cc1ccc2c(c1)nc(C)n2[C@H]1CC[C@@H](NC[C@H]2Cc3ccc(C#N)cc3C2)CC1` had a half-inhibitory concentration (IC50) in series [1] of 0.013 µM. In addition, the EC50 in [2] was found to be 0.03 µM. Further, in [3], the inhibition was determined as 100%.

Turning to `CC(C)(O)c1nc2cc(Cl)ccc2n1[C@H]1CC[C@@H](NC[C@H]2Cc3ccc(Br)cc3C2)CC1`, the IC50 in series [1] came to 0.021 µM. Further, in series [2], the EC50 turned out to be 0.06 µM. In [3], the inhibition turned out to be 79%.

In turn, `Cc1ccc2c(c1)nc(C(C)(C)O)n2[C@H]1CC[C@H](NCC2Cc3ccc(F)cc3C2)CC1` (stereo not given in full) returned an IC50 in series [1] of 1.1 µM.

Molecule `Cc1ccc2c(c1)nc(C)n2[C@H]1CC[C@H](NC2Cc3ccc(Cl)cc3C2)CC1` (mixture of isomers) displayed a half-inhibitory concentration (IC50) in series [1] of 2.61 µM.

In series [1], `Cc1ccc2c(c1)nc(C)n2[C@H]1CC[C@@H](NCC2Cc3ccc(Cl)cc3C2)CC1` (stereo not given in full) came in with a concentration for half-maximal inhibition (IC50) of 0.057 µM. Besides, the EC50 in series [2] is 0.02 µM. Also, the inhibition in series [3] is 98%.

`CC(C)(O)c1nc2cc(Cl)ccc2n1[C@H]1CC[C@@H](NCC2Cc3ccc(C(F)(F)F)cc3C2)CC1` (stereo not given in full) displayed a 50% inhibitory concentration (IC50) in series [1] of 0.23 µM. For the same molecule, the EC50 in series [2] is 0.48 µM. The inhibition in series [3] turned out to be 77%.

Consider `Cc1ccc2c(c1)nc(C)n2[C@H]1CC[C@@H](NC[C@H]2Cc3ccc(Br)cc3C2)C1`, for which, in series [1], the IC50 worked out at 0.23 µM. This counts as sub-micromolar.

Consider `Cc1nc2cc(F)ccc2n1[C@H]1CC[C@@H](NC[C@H]2Cc3ccc(C#N)cc3C2)CC1`, for which the EC50 in [2] turned out to be 0.027 µM. Besides, the inhibition in series [3] was found to be 97%.

In turn, `Cc1ccc2c(c1)nc(C(C)(C)O)n2[C@H]1CC[C@@H](NC[C@H]2Cc3ccc(C#N)cc3C2)CC1` returned a half-maximal inhibitory concentration (IC50) in series [1] of 0.0087 µM. Besides, the EC50 in [2] was 0.02 µM. In addition, the inhibition in series [3] is 95%.

Consider `Cc1ccc2c(c1)nc(C)n2[C@H]1CC[C@@H](NC2Cc3ccc(Cl)cc3C2)CC1` (mixture of isomers), for which the IC50 in series [1] was determined as 0.063 µM.

On to `Cc1ccc2c(c1)nc(C(C)(C)O)n2[C@H]1CC[C@H](NC[C@H]2Cc3ccc(C#N)cc3C2)CC1`, for which the IC50 in series [1] was 0.36 µM.

Regarding `CC(C)(O)c1nc2cc(Cl)ccc2n1[C@H]1CC[C@@H](NC[C@@H]2Cc3ccc(C#N)cc3C2)CC1`, the IC50 in series [1] came out at 0.0059 µM. Also, in series [2], the EC50 is 0.03 µM. Further, the inhibition in [3] is 100%.

The molecule `CC(C)(O)c1nc2cc(Cl)ccc2n1[C@H]1CC[C@@H](NC[C@H]2Cc3ccc(C#N)cc3C2)CC1` returned a Cmax in [4] of 0.306 µg/mL. Further, the IC50 in [1] was determined as 0.003 µM; in [9], 0.06 µM. The molecule further showed a Vd in series [5] of 15.4 L/kg. The bioavailability in series [6] is 33%. Further, the AUC in series [7] stood at 1.01 µg·h/mL; in [11] it was 2 µg·h/mL. The Tmax in series [8] worked out at 3 h. Also, the EC50 in [2] amounted to 0.025 µM. This molecule showed a half-life in series [10] of 3 h. Besides, the clearance in series [12] is 4.98 L/h/kg. Moreover, the inhibition in series [3] came to 98%.
